Laboratory results taken from patent US4620871A (priority 1980, dated 1986).
Where two headings read alike, the source gives them in different places.

Columns and labels:
[1] = test system: Egri leanyka vine variety; assay: Berry yield and sugar content of vine, Egri leanyka (Example 33); assay type: in vivo
Description: (§1) Vine stands were sprayed with the compositions according to the invention to examine their effects exerted on the berry yield and sugar content. The compositions, diluted with water, were sprayed three times onto the plants. The first treatment was performed prior to flowering, the second one three weeks later, and the third one six weeks after the first one. The dose applied was 2 kg/ha in each of the treatments.
(§2) Comparative tests were also performed with commonly used growth regulating compositions, i.e. CCC (chlorocholine chloride), Ethrel (or Etefon; 2-chloroethylphosphonic acid) and Nevirol (N-phenyl-phthalaiminic acid). The results were compared to those observed with the untreated controls.
(§3) Two vine varieties, Pannonia and Egri leanyka, were involved in the tests.

[2] = test system: Mexican 226 K wheat variety; assay: Nitrogen contents of grains of Mexican 226 K wheat (Example 31); assay type: in vivo
Description: Two wheat varieties, Libelulla and Mexican 226 K, were utilized in the tests performed under large-parcel field conditions. The sowing seeds were coated with the compositions of the invention according to the wet powder seed dressing technique; a dosis of 2 kg/ha was applied.
The soil was also treated with the compositions according to the invention directly before sowing. A dose of 2 kg/ha was applied.
The grain yields of the wheat varieties, harvested from the treated and control parcels, were measured, and the total nitrogen content and protein nitrogen content of the grains were determined.

leaves of Pinto bean = assay: Protein synthesis, glycine-2-14C incorporation in Pinto bean leaves (Example 19); conditions: 18 hours, zeatin 20 ppm, kinetin/benzyladenine 30 ppm, others 200 ppm
Description: The tests were performed on leaves of Pinto bean. The leaf segments were treated with an endogeneous cytokinin (zeatin), synthetic cytokinins (kinetin, benzyladenine) or with the compositions according to the invention, respectively, by floating the leaf segments on the solution of the test substance for 18 hours. Thereafter the leaf segments were exposed to a labelled amino acid (glycine-2-^14 C) for 3 hours, and the incorporation of the amino acid was determined by radiometry.

green parts of maize = assay: Stimulation of plant photolysis, HTO, maize (Example 22); conditions: 500 ppm, 2 hours; control 4.64
Description: The compositions according to the invention were diluted with distilled water to an active agent content of 500 ppm, and green parts of maize, weighing 200 mg, were treated with the resulting solutions for 2 hours. Thereafter the treated green plant parts were treated for one hour with 10 μCi/50 ml HTO, then the plant parts were frozen with liquid nitorgen, triturated, subjected to chromatographic separation, and the radioactivity of the isolated glycerol aldehyde was determined.
In the control test the green parts of maize were treated with distilled water only.

Tobacco callus = assay: Daily growth, cell number and frequency of mitosis of tobacco callus (Example 13); assay type: cell-based; conditions: 10 ppm active agent; 3 weeks
Description: An untreated culture medium served as control. Tobacco callus was grown on the treated and untreated culture media (incubation period: 3 weeks), and the daily growth, the increase in cell number and the frequency of mitosis were measured according to the method of Skoog.

[3] = test system: callus isolated from Datura innoxia Mill. roots; assay: Growth of callus isolated from Datura innoxia Mill. roots (Example 15); assay type: cell-based; conditions: for percentage growth promoting effect: control = 100, 30240 min
Pinto bean = assay: Stimulation of membrane activity (nitrate uptake), Pinto bean (Example 25); assay type: in vivo
Description: The tests were performed on Pinto bean. The plants were treated with solutions of an endogeneous cytokinin (zeatin), synthetic cytokinins and membraneactive regulators according to the invention, respectively, and the leaves of the plants were analyzed 2 weeks after the treatment.

Wheat = assay: Stimulation of nutrient uptake, labelled phosphate, wheat (Example 24); conditions: 200 ppm, control 17.4
Description: The compositions according to the invention were diluted with distilled water to an active agent concentration of 200 ppm, and leaf segments of wheat, maize and pea, weighing 200 mg each, were treated with the solutions. Thereafter the treated green leaf segments were treated for 0.5 hours with a solution of labelled phosphate ions (radioactivity: 30 μCi/50 ml). After this exposition period the treated leaf segments and the untreated controls were processed in a manner known per se to isolate the nucleic acid fractions, and the isolated nucleic acid fractions were dissolved in 6 n ammonium hydroxide solution. Stock solutions were prepared from the resulting solutions, and the amount of labelled phosphate ions present in the stock solutions were measured by liquid scintillation.

grass stands = assay: Crop yield and nitrogen content of grass stand (Example 34); assay type: in vivo
Description: Tests were performed on grass stands to examine how the compositions according to the invention influence the crop yield, furthermore the total nitrogen content and protein nitrogen content of the crop.
Parcels, 4 m^2 in area, were separated and pegged out on a grass land, and the parcels were sprayed three times with the compositions according to the invention. The liquid compositions were diluted with water prior to spraying, and spraying was repeated in every two weeks. A dose of 2 kg/ha w was applied in each of the treatments.
Thereafter the grass was mowed, the green crop was weighed, and the total nitrogen content and protein nitrogen content of the mowed grass were determined.

Pannonia vine variety = assay: Berry yield and sugar content of vine, Pannonia (Example 33); assay type: in vivo
Description: as §1, §2, §3

maize for silage = assay: Green weight and nitrogen content of maize for silage (Example 28); assay type: in vivo
Description: The tests were performed on parcels 200 m^2 in area. The compositions according to the invention were utilized as solid formulations, and were diluted with water prior to applying them onto the soil. The active agent was applied to the soil in an amount of 2 kg/ha directly before sowing. The green weight of the maize for silage, harvested from the treated and control parcels, was measured, and the dry substance content, crude protein content, real protein content, nitrogen content and carbon content of the green plants were determined.

Question: Which “Berry yield, increase” value [1] does the source give for `CCC[n+]1c[nH]c2ccccc21.[Br-]` [N--(n-Propyl)-benzimidazolium bromide, N-(n-propyl)-benzimidazolium bromide] here?
Answer: 17.0%

Question: And the “Sugar yield, increase” value [1]?
Answer: 17.0%

Question: What about the “influence on sugar content, in words” value [1] of the same compound?
Answer: did not influence the sugar content

Question: What about the Berry yield ([1]; 3 x 2 kg/ha, control 151.15) of the same compound?
Answer: 176.92 q/ha

Question: And the Sugar content ([1]; control 16.7)?
Answer: 16.7%

Question: What about the Sugar yield ([1]; control 18.93) of the same compound?
Answer: 22.16 q/ha

Question: What about the “Berry yield, increase” value ([1]; listed as N-(n-propyl)-benzimidazolium bromide) of the same compound?
Answer: 17%

Question: What about the “Protein nitrogen content, stimulation” value [2] of the same compound?
Answer: 8.0%

Question: And the “Total nitrogen content, stimulation” value [2]?
Answer: 1.0%

Question: And the Protein nitrogen content ([2]; control 1.61)?
Answer: 1.74 % of dry substance

Question: What about the Total nitrogen content ([2]; seed 2 kg/ha + soil 2 kg/ha, control 2.12) of the same compound?
Answer: 2.15 % of dry substance

Question: And the Stimulation (leaves of Pinto bean)?
Answer: 42.7%

Question: What about the “Radioactivity of the TCA-insoluble fraction” value (leaves of Pinto bean; control 3.17) of the same compound?
Answer: 4.52 1000 dpm/200 mg fresh weight

Question: And the Radioactivity (green parts of maize)?
Answer: 8.76 dpm/mg dry weight

Question: What about the Cell number/g (Tobacco callus) of the same compound?
Answer: 327.5 10^4 units

Question: And the Daily growth (Tobacco callus)?
Answer: 22.8 mg

Question: And the Dry substance ([3]; with kinetin (2 ppm))?
Answer: 3.17%

Question: What about the “Dry weight of the callus” value ([3]; with kinetin (2 ppm)) of the same compound?
Answer: 209.13 mg

Question: What about the “Fresh weight of the callus” value ([3]; with kinetin (2 ppm)) of the same compound?
Answer: 6.5772 g

Question: What about the “Growth, dry weight” value ([3]; with kinetin (2 ppm)) of the same compound?
Answer: 18.78

Question: What about the “Growth, fresh weight” value ([3]; with kinetin (2 ppm)) of the same compound?
Answer: 20.92

Question: And the Speed of growth ([3]; with kinetin (2 ppm))?
Answer: 128.10 mg/day

Question: What about the “percentage growth promoting effect” value ([3]; with kinetin) of the same compound?
Answer: 134%

Question: What about the Dry substance ([3]; without kinetin) of the same compound?
Answer: 7.07%

Question: What about the “Dry weight of the callus” value ([3]; without kinetin) of the same compound?
Answer: 43.29 mg

Question: And the “Fresh weight of the callus” value ([3]; without kinetin)?
Answer: 0.6120 g

Question: What about the “Growth, dry weight” value ([3]; without kinetin) of the same compound?
Answer: 3.09

Question: And the “Growth, fresh weight” value ([3]; without kinetin)?
Answer: 1.04

Question: What about the Speed of growth ([3]; without kinetin) of the same compound?
Answer: 6.36 mg/day

Question: What about the “percentage growth promoting effect” value ([3]; without kinetin) of the same compound?
Answer: 322%

Question: And the Protein nitrogen (Pinto bean; 2 weeks, zeatin 20, kinetin/benzyladenine 30, others 200 ppm, control 2.4)?
Answer: 4.4 % of dry weight

Question: And the Total nitrogen (Pinto bean; 2 weeks, zeatin 20, kinetin/benzyladenine 30, others 200 ppm, control 3.8)?
Answer: 5.3 % of dry weight

Question: What about the “Total nitrogen, stimulation” value (Pinto bean; 200 ppm) of the same compound?
Answer: 39.4%

Question: And the “Protein nitrogen, stimulation” value (Pinto bean; zeatin 20, kinetin/benzyladenine 30, others 200 ppm)?
Answer: 83.3%

Question: And the “Protein nitrogen content in % of the total nitrogen content” value (Pinto bean; zeatin 20, kinetin/benzyladenine 30, others 200 ppm, control 63)?
Answer: 83%

Question: What about the “labelled phosphate in nucleic acid fraction” value (Wheat) of the same compound?
Answer: 22.8 1000 cpm/g

Question: What about the Protein nitrogen content (grass stands; 3 x 2 kg/ha, control 2.80) of the same compound?
Answer: 3.54%

Question: And the Total nitrogen content (grass stands; 3 x 2 kg/ha, control 4.22)?
Answer: 5.36%

Question: And the Crop yield (grass stands; 4 m^2 parcels, 3 x 2 kg/ha, control 5.10)?
Answer: 5.27

Question: And the “Protein nitrogen content, increase” value (grass stands; in vivo)?
Answer: 26.4%

Question: What about the “Total nitrogen content, increase” value (grass stands; in vivo) of the same compound?
Answer: 27.0%

Question: And the “Sugar content, increase” value (Pannonia vine variety)?
Answer: 21.5%

Question: And the “Sugar yield, increase” value (Pannonia vine variety)?
Answer: 27%

Question: And the Berry yield (Pannonia vine variety; 3 x 2 kg/ha, control 216)?
Answer: 226 q/ha

Question: And the Sugar content (Pannonia vine variety; control 13.0)?
Answer: 15.8%

Question: What about the Sugar yield (Pannonia vine variety; control 28.08) of the same compound?
Answer: 35.70 q/ha

Question: What about the “Air-dry substance, relative” value (maize for silage; 2 kg/ha) of the same compound?
Answer: 14.10%

Question: And the “Crude proteins, relative” value (maize for silage; 2 kg/ha)?
Answer: 21.7%

Question: What about the “Real protein content, relative” value (maize for silage; 2 kg/ha) of the same compound?
Answer: 4.4%

Question: And the Green weight (maize for silage; 2 kg/ha to soil, 200 m^2 parcels, control 365)?
Answer: 389 kg

Question: What about the “Total nitrogen content, absolute” value (maize for silage; 2 kg/ha, control 0.30) of the same compound?
Answer: 0.86%

Question: And the “Real protein content, absolute” value (maize for silage; 2 kg/ha, control 1.35)?
Answer: 1.4%

Question: What about the “Crude proteins, absolute” value (maize for silage; 2 kg/ha, control 1.85) of the same compound?
Answer: 2.25%

Question: What about the “Total carbon content, absolute” value (maize for silage; 2 kg/ha, control 8.99) of the same compound?
Answer: 10.27%

Question: And the “Air-dry substance, absolute” value (maize for silage; 2 kg/ha, control 20.57)?
Answer: 23.48%

Question: And the Carbon/nitrogen ratio (maize for silage; 2 kg/ha, control 30.86)?
Answer: 28.67
